From patent US8003785B2 (Takeda Pharmaceutical Company Limited, priority 2008, dated 2011)

These compounds were tested against T1, PLK1 (Homo sapiens, UniProt P53350) (assay: Biochemical Characterization Assay: HTRF kinase assay, GST-PLK1 phosphorylation of GST-p53). Details: GST-PLK1, GST-p53 substrate.
T1 construct: Full-length, active GST-PLK1 is purified from Sf9 insect cells; made in house; host or cells: Sf9 insect cells
T1 sequence (P53350 whole entry): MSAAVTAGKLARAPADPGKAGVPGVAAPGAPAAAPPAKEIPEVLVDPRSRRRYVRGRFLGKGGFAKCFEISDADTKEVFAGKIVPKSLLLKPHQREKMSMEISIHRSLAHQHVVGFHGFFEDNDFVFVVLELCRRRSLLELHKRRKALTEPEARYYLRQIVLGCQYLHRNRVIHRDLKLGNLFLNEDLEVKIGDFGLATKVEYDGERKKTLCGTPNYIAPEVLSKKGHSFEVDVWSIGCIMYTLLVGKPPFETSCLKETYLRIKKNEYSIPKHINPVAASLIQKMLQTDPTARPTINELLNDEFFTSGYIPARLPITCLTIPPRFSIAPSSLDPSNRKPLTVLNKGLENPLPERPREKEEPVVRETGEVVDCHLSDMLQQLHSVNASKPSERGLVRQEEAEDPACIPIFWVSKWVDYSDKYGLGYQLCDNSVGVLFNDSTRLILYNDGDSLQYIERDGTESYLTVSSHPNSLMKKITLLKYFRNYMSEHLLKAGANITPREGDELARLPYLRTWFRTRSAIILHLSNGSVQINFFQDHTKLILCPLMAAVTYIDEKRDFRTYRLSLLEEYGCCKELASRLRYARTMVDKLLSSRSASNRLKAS
In short: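 Full-length active GST-PLK1 (Sf9, 3 ug/mL) phosphorylated full-length GST-p53 (E. coli) in Kinase Assay Buffer for 35 min at 37 °C. Stopped with EDTA; phospho-p53 detected by HTRF with anti-phospho-p53, Eu-anti-rabbit and APC-anti-GST antibodies.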
An IC50 of 1 to 50 nM was found for `CNC(=O)c1ccc(Nc2ncc3c(n2)N(C2CCCC2)CC(F)(F)C(=O)N3C)c(C)c1` [Example I-190, 4-(9-cyclopentyl-7,7-difluoro-5-methyl-6-oxo-6,7,8,9-tetrahydro-5H-pyrimido[4,5-b][1,4]diazepin-2-ylamino)-3,N-dimethyl-benzamide] in this work.
An IC50 of 1 to 50 nM was found for `CN1C(=O)C(F)(F)CN(C2CCCC2)c2nc(Nc3ccc(C(=O)NC4CCOCC4)cc3F)ncc21` [Example I-225, 4-(9-cyclopentyl-7,7-difluoro-5-methyl-6-oxo-6,7,8,9-tetrahydro-5H-pyrimido[4,5-b][1,4]diazepin-2-ylamino)-3-fluoro-N-(tetrahydro-pyran-4-yl)-benzamide] in this work.
An IC50 of 1 to 50 nM was found for `CCc1cc(C(=O)NC2CCN(CC)CC2)ccc1Nc1ncc2c(n1)N(C1CCCC1)CC(F)(F)C(=O)N2C` [Example I-196, 4-(9-cyclopentyl-7,7-difluoro-5-methyl-6-oxo-6,7,8,9-tetrahydro-5H-pyrimido[4,5-b][1,4]diazepin-2-ylamino)-3-ethyl-N-(1-ethyl-piperidin-4-yl)-benzamide] in this work.
An IC50 of 1 to 50 nM was found for `COc1cc(C(=O)N[C@H]2CC[C@@H](N3CCN(CC4CC4)CC3)CC2)ccc1Nc1ncc2c(n1)N(C1CCCC1)CC(F)(F)C(=O)N2C` [Example I-299, 4-(9-cyclopentyl-7,7-difluoro-5-methyl-6-oxo-6,7,8,9-tetrahydro-5H-pyrimido[4,5-b][1,4]diazepin-2-ylamino)-N-[cis-4-(4-cyclopropylmethyl-piperazin-1-yl)-cyclohexyl]-3-methoxy-benzamide] in this work.
An IC50 of 1 to 50 nM was found for `COc1cc(C(N)=O)c(F)cc1Nc1ncc2c(n1)N(C1CCCC1)CC(F)(F)C(=O)N2C` [Example I-170, 4-(9-cyclopentyl-7,7-difluoro-5-methyl-6-oxo-6,7,8,9-tetrahydro-5H-pyrimido[4,5-b][1,4]diazepin-2-ylamino)-2-fluoro-5-methoxy-benzamide] in this work.
An IC50 of 1 to 50 nM was found for `COc1cc(C(=O)NC2CCOCC2)c(F)cc1Nc1ncc2c(n1)N(C1CCCC1)CC(F)(F)C(=O)N2C` [Example I-173, 4-(9-cyclopentyl-7,7-difluoro-5-methyl-6-oxo-6,7,8,9-tetrahydro-5H-pyrimido[4,5-b][1,4]diazepin-2-ylamino)-2-fluoro-5-methoxy-N-(tetrahydropyran-4-yl)-benzamide] in this work.
An IC50 of 51 to 500 nM was found for `CN1C(=O)C(F)(F)CN(C2CCCC2)c2nc(Nc3ccc(C(=O)NC4CCN(C(=O)OC(C)(C)C)CC4)cc3C(F)(F)F)ncc21` [Example I-211, 4-[4-(9-cyclopentyl-7,7-difluoro-5-methyl-6-oxo-6,7,8,9-tetrahydro-5H-pyrimido[4,5-b][1,4]diazepin-2-ylamino)-3-trifluoromethyl-benzoylamino]-piperidine-1-carboxylic acid tert-butyl ester] in this work.
An IC50 of 1 to 50 nM was found for `CNC(=O)c1cc(F)c(Nc2ncc3c(n2)N(C2CCCC2)CC(F)(F)C(=O)N3C)cc1F` [Example I-238, 4-(9-cyclopentyl-7,7-difluoro-5-methyl-6-oxo-6,7,8,9-tetrahydro-5H-pyrimido[4,5-b][1,4]diazepin-2-ylamino)-2,5-difluoro-N-methyl-benzamide] in this work.
An IC50 of 1 to 50 nM was found for `COc1cc(C(=O)O)ccc1Nc1ncc2c(n1)N(C1CCCCC1)CC(F)(F)C(=O)N2C` [Example I-246, 4-(9-cyclohexyl-7,7-difluoro-5-methyl-6-oxo-6,7,8,9-tetrahydro-5H-pyrimido[4,5-b][1,4]diazepin-2-ylamino)-3-methoxy-benzoic acid] in this work.
An IC50 of 1 to 50 nM was found for `COc1cc(C(N)=O)ccc1Nc1ncc2c(n1)N(C1CCCCC1)CC(F)(F)C(=O)N2C` [Example I-248, 4-(9-cyclohexyl-7,7-difluoro-5-methyl-6-oxo-6,7,8,9-tetrahydro-5H-pyrimido[4,5-b][1,4]diazepin-2-ylamino)-3-methoxy-benzamide] in this work.
An IC50 of 51 to 500 nM was found for `CN(C)CCNC(=O)c1ccc(Nc2ncc3c(n2)N(C2CCCC2)CC(F)(F)C(=O)N3C)c(C(F)(F)F)c1` [Example I-208, 4-(9-cyclopentyl-7,7-difluoro-5-methyl-6-oxo-6,7,8,9-tetrahydro-5H-pyrimido[4,5-b][1,4]diazepin-2-ylamino)-N-(2-dimethylamino-ethyl)-3-trifluoromethyl-benzamide] in this work.
An IC50 of 1 to 50 nM was found for `CCN1CCC(NC(=O)c2ccc(Nc3ncc4c(n3)N(C3CCCCC3)CC(F)(F)C(=O)N4C)cc2)CC1` [Example I-261, 4-(9-cyclohexyl-7,7-difluoro-5-methyl-6-oxo-6,7,8,9-tetrahydro-5H-pyrimido[4,5-b][1,4]diazepin-2-ylamino)-N-(1-ethyl-piperidin-4-yl)-benzamide] in this work.

Same assay, conditions: GST-PLK1, GST-p53 substrate, ATP
An IC50 of 1 to 50 nM was found for `COc1cc(C(=O)NCCCN2CCC(O)CC2)ccc1Nc1ncc2c(n1)N(C1CCCC1)CC(F)(F)C(=O)N2C` [Example I-105, 4-(9-cyclopentyl-7,7-difluoro-5-methyl-6-oxo-6,7,8,9-tetrahydro-5H-pyrimido[4,5-b][1,4]diazepin-2-ylamino)-N-[3-(4-hydroxy-piperidin-1-yl)-propyl]-3-methoxy-benzamide] in this work.
An IC50 of 1 to 50 nM was found for `COc1cc(C(N)=O)ccc1Nc1ncc2c(n1)N(C1CCC1)CC(F)(F)C(=O)N2C` [Example I-2, 4-(9-cyclobutyl-7,7-difluoro-5-methyl-6-oxo-6,7,8,9-tetrahydro-5H-pyrimido[4,5-b][1,4]diazepin-2-ylamino)-3-methoxy-benzamide] in this work.
An IC50 of 51 to 500 nM was found for `COc1cc(C(=O)NC(C)c2ccccc2)ccc1Nc1ncc2c(n1)N(C1CCCC1)CC(F)(F)C(=O)N2C` (racemic) [Example I-37, rac-4-(9-cyclopentyl-7,7-difluoro-5-methyl-6-oxo-6,7,8,9-tetrahydro-5H-pyrimido[4,5-b][1,4]diazepin-2-ylamino)-3-methoxy-N-(1-phenyl-ethyl)-benzamide] in this work.
An IC50 of 1 to 50 nM was found for `COc1cc(C(=O)NCCCN2CCOCC2)ccc1Nc1ncc2c(n1)N(C1CCCC1)CC(F)(F)C(=O)N2C` [Example I-79, 4-(9-cyclopentyl-7,7-difluoro-5-methyl-6-oxo-6,7,8,9-tetrahydro-5H-pyrimido[4,5-b][1,4]diazepin-2-ylamino)-3-methoxy-N-(3-morpholin-4-yl-propyl)-benzamide] in this work.
An IC50 of 51 to 500 nM was found for `COc1cc(C(=O)NCC2CCCCC2)ccc1Nc1ncc2c(n1)N(C1CCCC1)CC(F)(F)C(=O)N2C` [Example I-32, N-cyclohexylmethyl-4-(9-cyclopentyl-7,7-difluoro-5-methyl-6-oxo-6,7,8,9-tetrahydro-5H-pyrimido[4,5-b][1,4]diazepin-2-ylamino)-3-methoxy-benzamide] in this work.
An IC50 of 1 to 50 nM was found for `COc1cc(C(=O)NCCN2CCNCC2)ccc1Nc1ncc2c(n1)N(C1CCCC1)CC(F)(F)C(=O)N2C` [Example I-49, 4-(9-cyclopentyl-7,7-difluoro-5-methyl-6-oxo-6,7,8,9-tetrahydro-5H-pyrimido[4,5-b][1,4]diazepin-2-ylamino)-3-methoxy-N-(2-piperazin-1-yl-ethyl)-benzamide] in this work.
An IC50 of 1 to 50 nM was found for `COc1cc(C(=O)N[C@@H]2CCN(C(=O)OC(C)(C)C)C[C@@H]2OC)ccc1Nc1ncc2c(n1)N(C1CCCC1)CC(F)(F)C(=O)N2C` (racemic) [Example I-56, rac-(3S,4R)-4-[4-(9-cyclopentyl-7,7-difluoro-5-methyl-6-oxo-6,7,8,9-tetrahydro-5H-pyrimido[4,5-b][1,4]diazepin-2-ylamino)-3-methoxy-benzoylamino]-3-methoxy-piperidine-1-carboxylic acid tert-butyl ester] in this work.
An IC50 greater than 5000 nM was found for `NC(=O)c1ccc(Nc2ncc3c(n2)N(C2CCCC2)CC(F)(F)C(=O)N3)cc1` [Example I-132, 4-(9-cyclopentyl-7,7-difluoro-6-oxo-6,7,8,9-tetrahydro-5H-pyrimido[4,5-b][1,4]diazepin-2-ylamino)-benzamide] in this work.
An IC50 of 51 to 500 nM was found for `CCCN1C(=O)C(F)(F)CN(C2CCCC2)c2nc(Nc3ccc(C(=O)NC4CCN(C)CC4)cc3)ncc21` [Example I-147, 4-(9-cyclopentyl-7,7-difluoro-6-oxo-5-propyl-6,7,8,9-tetrahydro-5H-pyrimido[4,5-b][1,4]diazepin-2-ylamino)-N-(1-methyl-piperidin-4-yl)-benzamide] in this work.
An IC50 of 1 to 50 nM was found for `COc1cc(C(=O)NC2CCN(CC(F)(F)F)CC2)ccc1Nc1ncc2c(n1)N(C1CCCC1)CC(F)(F)C(=O)N2C` [Example I-77, 4-(9-cyclopentyl-7,7-difluoro-5-methyl-6-oxo-6,7,8,9-tetrahydro-5H-pyrimido[4,5-b][1,4]diazepin-2-ylamino)-3-methoxy-N-[1-(2,2,2-trifluoro-ethyl)-piperidin-4-yl]-benzamide] in this work.
An IC50 of 51 to 500 nM was found for `COc1cc(C(=O)N[C@@H]2CCN(C(=O)OCc3ccccc3)C[C@H]2O)ccc1Nc1ncc2c(n1)N(C1CCCC1)CC(F)(F)C(=O)N2C` (racemic) [Example I-54, rac-(3R,4R)-4-[4-(9-cyclopentyl-7,7-difluoro-5-methyl-6-oxo-6,7,8,9-tetrahydro-5H-pyrimido[4,5-b][1,4]diazepin-2-ylamino)-3-methoxy-benzoylamino]-3-hydroxy-piperidine-1-carboxylic acid benzyl ester] in this work.
An IC50 of 51 to 500 nM was found for `COc1cc(C(=O)N2CCC(N)CC2)ccc1Nc1ncc2c(n1)N(C1CCC1)CC(F)(F)C(=O)N2C` [Example I-6, 2-[4-(4-amino-piperidine-1-carbonyl)-2-methoxy-phenylamino]-9-cyclobutyl-7,7-difluoro-5-methyl-5,7,8,9-tetrahydro-pyrimido[4,5-b][1,4]diazepin-6-one] in this work.
An IC50 of 500 to 5000 nM was found for `CCCN1C(=O)C(F)(F)CN(C2CCCC2)c2nc(Nc3ccc(C(N)=O)cc3)ncc21` [Example I-145, 4-(9-cyclopentyl-7,7-difluoro-6-oxo-5-propyl-6,7,8,9-tetrahydro-5H-pyrimido[4,5-b][1,4]diazepin-2-ylamino)-benzamide] in this work.
An IC50 of 1 to 50 nM was found for `COc1cc(C(=O)NC2CCN(C3CCCC3)CC2)ccc1Nc1ncc2c(n1)N(C1CCCC1)CC(F)(F)C(=O)N2C` [Example I-63, 4-(9-cyclopentyl-7,7-difluoro-5-methyl-6-oxo-6,7,8,9-tetrahydro-5H-pyrimido[4,5-b][1,4]diazepin-2-ylamino)-N-(1-cyclopentyl-piperidin-4-yl)-3-methoxy-benzamide] in this work.
